Laboratory results: patent US20240101570A1 (AMGEN INC., priority 2020, published 2024)

Experiments:
HCT116 WT cells = assay: HCT116 WT cell proliferation / viability (CellTiter-Glo, 6 days); format: cell-based; details: Homo sapiens, HCT-116, 144 h, HCT116 WT cells, 6 days, CellTiter-Glo; read-out: HCT-116 WT IC50
Method in brief: (§1)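 CellTiter-Glo luminescence, 6-day exposure, RPMI 1640 + 10% FBS. Dosing: 1:3 series (8-9 pts, top 1 or 10 μM) or 1:2 series (22 pts, top 10 or 50 μM), DMSO control. IC50 = 50% of control via curve fit.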

HCT116 MTAP null cells = assay: HCT116 MTAP null cell proliferation / viability (CellTiter-Glo, 6 days); format: cell-based; details: HCT116-MTAP null, 144 h, HCT116 MTAP null cells, 6 days, CellTiter-Glo; read-out: HCT-116 MTAP null IC50
Method in brief: as §1

Row | Compound | IC50 (HCT116 WT cells) | IC50 (HCT116 MTAP null cells)
1 | COC[C@@H](C)N(Cc1ccc(Cl)nn1)C(=O)c1cc2c3c(c(N)nc2cn1)[C@@H](C)OC3 [Example 308, (3R)-4-amino-N-((6-chloro-3-pyridazinyl)methyl)-N-((2R)-1-methoxy-2-propanyl)-3-methyl-1,3-dihydrofuro[3,4-c][1,7]naphthyridine-8-carboxamide] | 5100 nM | 124 nM
2 | CN(Cc1ccc(S(F)(F)(F)(F)F)cc1)C(=O)c1ccc2nc(N)c3cnn(C)c3c2c1 [Example 573, 4-amino-N,1-dimethyl-N-(4-(pentafluoro-lambda~6~- sulfanyl)benzyl)-1H-pyrazolo[4,3-c]quinoline-8-carboxamide] | 3730 nM | 85 nM
3 | C[C@H](c1ccc(-c2ccc(C(F)(F)F)cc2)cc1)N(C)C(=O)c1ccc2nc(N)c3cnn(C)c3c2c1 [Example 531, 4-amino-N,1-dimethyl-N-((1R)-1-(4′-(trifluoromethyl)[biphenyl]-4-yl)ethyl)-1H-pyrazolo[4,3-c]quinoline-8-carboxamide] | 2340 nM | 188 nM
4 | CN(Cc1ccc(C2CC2)nn1)C(=O)c1cc2c(cc1F)nc(N)c1cnn(C)c12 [Example 518, 4-amino-N-((6-cyclopropyl-3-pyridazinyl)methyl)-7-fluoro-N,1-dimethyl-1H-pyrazolo[4,3-c]quinoline-8-carboxamide] | 6270 nM | 106 nM
5 | Nc1nc2cnc(C(=O)N(Cc3ccc(C(F)(F)F)nn3)CC(F)(F)F)cc2c2c1COC2 [Example 712, 4-amino-N-(2,2,2-trifluoroethyl)-N-((6-(trifluoromethyl)-3-pyridazinyl)methyl)-1,3-dihydrofuro[3,4-c][1,7]naphthyridine-8-carboxamide] | > 50000 nM | 2000 nM
6 | CCOc1ccc(CN(C(=O)c2cc3c4c(c(N)nc3cn2)COC4)[C@H](C)c2ncccn2)nn1 [Example 749, 4-amino-N-((6-ethoxy-3-pyridazinyl)methyl)-N-((1R)-1-(2-pyrimidinyl)ethyl)-1,3-dihydrofuro[3,4-c][1,7]naphthyridine-8-carboxamide] | 3340 nM | 177 nM
7 | CCN(Cc1ccc(C(F)(F)F)nn1)C(=O)c1cc2c(cc1Cl)nc(N)c1cnn(C)c12 [Example 794, 4-amino-7-chloro-N-ethyl-1-methyl-N-((6-(trifluoromethyl)-3-pyridazinyl)methyl)-1H-pyrazolo[4,3-c]quinoline-8-carboxamide] | 499 nM | 20 nM
8 | N#Cc1ccc(CN(CC2CC2)C(=O)c2ccc3nc(N)c4c(c3c2)COC4)nc1 [Example 325, 4-amino-N-((5-cyano-2-pyridinyl)methyl)-N-(cyclopropylmethyl)-1,3-dihydrofuro[3,4-c]quinoline-8-carboxamide] | 2280 nM | 73 nM
9 | CC(C)N(Cc1ccc(C#N)cn1)C(=O)c1cc2c3c(c(N)nc2cn1)[C@@H](C)OC3 [Example 404, (3R)-4-amino-N-((5-cyano-2-pyridinyl)methyl)-3-methyl-N-(2-propanyl)-1,3-dihydrofuro[3,4-c][1,7]naphthyridine-8-carboxamide] | 11400 nM | 180 nM
10 | CCN(C(=O)c1ccc2nc(N)c3c(c2c1)COC3)[C@H](c1ccc(C(F)(F)F)cn1)C1CC1 [Example 748, 4-amino-N-((S)-cyclopropyl(5-(trifluoromethyl)-2-pyridinyl)methyl)-N-ethyl-1,3-dihydrofuro[3,4-c]quinoline-8-carboxamide] | 36400 nM | 5350 nM
11 | COCC(C)N(Cc1ccc(C(F)(F)F)cn1)C(=O)c1ccc2nc(N)c3c(C)noc3c2c1 (racemic) [Example 634, 4-amino-N-((2R)-1-methoxy-2-propanyl)-3-methyl-N-((5-(trifluoromethyl)-2-pyridinyl)methyl)[1,2]oxazolo[4,5-c]quinoline-8-carboxamide and 4-amino-N-((2S)-1-methoxy-2-propanyl)-3-methyl-N-((5-(trifluoromethyl)-2-pyridinyl)methyl)[1,2]oxazolo[4,5-c]quinoline-8-carboxamide] | 953 nM | 34 nM
12 | CCN(Cc1ccc(C(F)(F)F)nn1)C(=O)c1ccc2nc(N)c3c(c2c1)COC3 [Example 695, 4-amino-N-ethyl-N-((6-(trifluoromethyl)-3-pyridazinyl)methyl)-1,3-dihydrofuro[3,4-c]quinoline-8-carboxamide] | 4990 nM | 210 nM
13 | C[C@H](c1ccc(C(F)(F)F)cn1)N(C(=O)c1ccc2nc(N)c3c(c2c1)COC3)C1CC1 [Example 736, 4-amino-N-cyclopropyl-N-((1R)-1-(5-(trifluoromethyl)-2-pyridinyl)ethyl)-1,3-dihydrofuro[3,4-c]quinoline-8-carboxamide] | 4890 nM | 127 nM
14 | C[C@H](c1ccc(C(F)(F)F)cn1)N(C)C(=O)c1cc2c(cc1F)nc(N)c1cnn(C)c12 (single isomer, unassigned) [Example 602] | 209 nM | 6 nM
15 | C[C@H]1OCc2c1c(N)nc1ccc(C(=O)N(C)[C@@H](C)c3ccc(C(F)(F)F)cn3)cc21 (single isomer, unassigned) [Example 852] | > 50000 nM | 3160 nM
16 | CC(CF)N(Cc1ccc(C#N)cn1)C(=O)c1cc2c3c(c(N)nc2cn1)COC3 (racemic) [Example 687, 4-amino-N-((5-cyano-2-pyridinyl)methyl)-N-((2R)-1-fluoro-2-propanyl)-1,3-dihydrofuro[3,4-c][1,7]naphthyridine-8-carboxamide and 4-amino-N-((5-cyano-2-pyridinyl)methyl)-N-((2S)-1-fluoro-2-propanyl)-1,3-dihydrofuro[3,4-c][1,7]naphthyridine-8-carboxamide] | > 10000 nM | > 10000 nM
17 | CC(C)CN(Cc1ccc(C(F)(F)F)nn1)C(=O)c1ccc2nc(N)c3c(c2c1)COC3 [Example 664, 4-amino-N-(2-methylpropyl)-N-((6-(trifluoromethyl)-3-pyridazinyl)methyl)-1,3-dihydrofuro[3,4-c]quinoline-8-carboxamide] | 1390 nM | 38 nM
18 | CC1OCc2c1c(N)nc1ccc(C(=O)N(Cc3ccc(C#N)cn3)CC3CCOCC3)cc21 (centres unmarked) [Example 896, 4-amino-N-((5-cyanopyridin-2-yl)methyl)-3-methyl-N-((tetrahydro-2H-pyran-4-yl)methyl)-1,3-dihydrofuro[3,4-c]quinoline-8-carboxamide] | 1800 nM | 88 nM
19 | C[C@H](c1ccc(C(F)(F)F)cn1)N(C(=O)c1cc2c(cc1F)nc(N)c1c2cnn1C)C1CC1 [Example 508, 4-amino-N-cyclopropyl-7-fluoro-3-methyl-N-((1R)-1-(5-(trifluoromethyl)-2-pyridinyl)ethyl)-3H-pyrazolo[3,4-c]quinoline-8-carboxamide] | 2840 nM | 60 nM
20 | CN(Cc1ccc(Cl)cn1)C(=O)c1cc2c3c(c(N)nc2cn1)COC3 [Example 694, 4-amino-N-((5-chloro-2-pyridinyl)methyl)-N-methyl-1,3-dihydrofuro[3,4-c][1,7]naphthyridine-8-carboxamide] | > 10000 nM | 415 nM
21 | Cn1cc(N(Cc2ccc(C(F)(F)F)cn2)C(=O)c2cc3c4c(c(N)nc3cn2)COC4)cn1 [Example 885, 4-amino-N-(1-methyl-1H-pyrazol-4-yl)-N-((5-(trifluoromethyl)-2-pyridinyl)methyl)-1,3-dihydrofuro[3,4-c][1,7]naphthyridine-8-carboxamide] | 596 nM | 25 nM
22 | Cn1cc(N(Cc2ccc(C(F)(F)F)cn2)C(=O)c2cc3c(cc2F)nc(N)c2cnn(C)c23)cn1 [Example 740, 4-amino-7-fluoro-1-methyl-N-(1-methyl-1H-pyrazol-4-yl)-N-((5-(trifluoromethyl)-2-pyridinyl)methyl)-1H-pyrazolo[4,3-c]quinoline-8-carboxamide] | 100 nM | 5 nM
23 | C[C@H]1OCc2c1c(N)nc1ccc(C(=O)N(C)Cc3ccc(C(F)(F)F)nn3)cc21 [Example 485, (3R)-4-amino-N,3-dimethyl-N-((6-(trifluoromethyl)-3-pyridazinyl)methyl)-1,3-dihydrofuro[3,4-c]quinoline-8-carboxamide] | 32100 nM | 365 nM
24 | Nc1nc2ccc(C(=O)N(Cc3ccc(C(F)(F)F)cn3)Cc3ncccn3)cc2c2ccsc12 [Example 636, 4-amino-N-(2-pyrimidinylmethyl)-N-((5-(trifluoromethyl)-2-pyridinyl)methyl)thieno[2,3-c]quinoline-8-carboxamide] | 2990 nM | 149 nM
25 | CN(Cc1ccc(C(F)(F)F)nn1)C(=O)c1cc2c(cc1C(F)(F)F)nc(N)c1cnn(C)c12 [Example 811, 4-amino-N,1-dimethyl-7-(trifluoromethyl)-N-((6-(trifluoromethyl)-3-pyridazinyl)methyl)-1H-pyrazolo[4,3-c]quinoline-8-carboxamide] | > 50000 nM | 645 nM
26 | COC[C@@H](C)N(Cc1ccc(Br)nn1)C(=O)c1ccc2nc(N)c3sccc3c2c1 [Example 643, 4-amino-N-((6-bromo-3-pyridazinyl)methyl)-N-((2R)-1-methoxy-2-propanyl)thieno[2,3-c]quinoline-8-carboxamide] | 1620 nM | 178 nM
27 | Cn1ncc2c(N)nc3ccc(C(=O)N(Cc4ccc(C(F)(F)F)cn4)C4CC4)cc3c21 [Example 569, 4-amino-N-cyclopropyl-1-methyl-N-((5-(trifluoromethyl)-2-pyridinyl)methyl)-1H-pyrazolo[4,3-c]quinoline-8-carboxamide] | 3890 nM | 31 nM
28 | CCOc1ccc(CN(CC(C)C)C(=O)c2cc3c4c(c(N)nc3cn2)COC4)nn1 [Example 672, 4-amino-N-((6-ethoxy-3-pyridazinyl)methyl)-N-(2-methylpropyl)-1,3-dihydrofuro[3,4-c][1,7]naphthyridine-8-carboxamide] | 7460 nM | 145 nM
